Test results: US8802597B2, “Herbicidal pyrimidines” (E I du Pont de Nemours and Company, priority 2003, dated 2014)
Where two headings read alike, the source gives them in different places.

Experiments:
Assay in all cases: Test C pre/postemergence
Type in all cases: in vivo
[1] = system: Surinam grass (Brachiaria decumbens); conditions: Urochloa decumbens; for pest or weed control at 125 g/ha: 125 g ai/ha; for pest or weed control at 500 g/ha: 500 g ai/ha; for pest or weed control at 62 g/ha: 62 g ai/ha; for pest or weed control at 250 g/ha: 250 g ai/ha
Procedure, shortened: (§1)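 Percent control is a visual rating (0 none, 100 complete) taken against untreated plants after 12 to 14 days of greenhouse growth. Applications were made preemergence to seeded pots and postemergence to plants at the 1- to 4-leaf stage, in a non-phytotoxic surfactant-containing solvent.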

[2] = system: morningglory (Ipomoea coccinea); conditions: Ipomoea; for pest or weed control at 62 g/ha: 62 g ai/ha; for pest or weed control at 125 g/ha: 125 g ai/ha; for pest or weed control at 250 g/ha: 250 g ai/ha; for pest or weed control at 500 g/ha: 500 g ai/ha
Procedure, shortened: as §1

kochia (Kochia scoparia) = conditions: Bassia scoparia; for pest or weed control at 62 g/ha: 62 g ai/ha; for pest or weed control at 125 g/ha: 125 g ai/ha; for pest or weed control at 250 g/ha: 250 g ai/ha; for pest or weed control at 500 g/ha: 500 g ai/ha
Procedure, shortened: as §1

[3] = system: bermudagrass (Cynodon dactylon); conditions: Cynodon dactylon; for pest or weed control at 62 g/ha: 62 g ai/ha; for pest or weed control at 125 g/ha: 125 g ai/ha; for pest or weed control at 125 g/ha / pest or weed control at 250 g/ha / pest or weed control at 500 g/ha: scale 0 to 100; for pest or weed control at 250 g/ha: 250 g ai/ha; for pest or weed control at 500 g/ha: 500 g ai/ha
Procedure, shortened: as §1

[4] = system: cocklebur (Xanthium strumarium); conditions: Xanthium strumarium; for pest or weed control at 62 g/ha: 62 g ai/ha; for pest or weed control at 125 g/ha: 125 g ai/ha; for pest or weed control at 250 g/ha: 250 g ai/ha; for pest or weed control at 500 g/ha: 500 g ai/ha
Procedure, shortened: as §1

[5] = system: common (oilseed) sunflower (Helianthus annuus); conditions: Helianthus annuus, pre-emergence, Preemergence, read-out: Plant response rating, Sunflower
Procedure, shortened: as §1

[6] = post-emergence, Postemergence, scale 0 to 100 (0 no effect, 100 complete control), read-out: Surinam Grass plant response rating
[7] = post-emergence, Postemergence, scale 0 to 100, read-out: Plant response rating, Surinam Grass
[8] = pre-emergence, Preemergence, scale 0 to 100, read-out: Plant response rating, Surinam Grass
[9] = post-emergence, Postemergence, scale 0 to 100 (0 no effect, 100 complete control), read-out: Morningglory plant response rating
[10] = post-emergence, Postemergence, scale 0 to 100, read-out: Plant response rating, Morningglory
[11] = pre-emergence, Preemergence, scale 0 to 100, read-out: Plant response rating, Morningglory
[12] = post-emergence, Postemergence, scale 0 to 100 (0 no effect, 100 complete control), read-out: Kochia plant response rating
[13] = post-emergence, Postemergence, scale 0 to 100, read-out: Plant response rating, Kochia
[14] = pre-emergence, Preemergence, scale 0 to 100, read-out: Plant response rating, Kochia
[15] = post-emergence, Postemergence, read-out: Plant response rating, Bermudagrass
[16] = pre-emergence, Preemergence, read-out: Plant response rating, Bermudagrass
[17] = post-emergence, Postemergence, scale 0 to 100 (0 no effect, 100 complete control), read-out: Cocklebur plant response rating
[18] = post-emergence, Postemergence, scale 0 to 100, read-out: Plant response rating, Cocklebur
[19] = pre-emergence, Preemergence, scale 0 to 100, read-out: Plant response rating, Cocklebur

`CNc1nc(C2CC2)nc(C(=O)OC)c1Br` [Compound 5] gave a pest or weed control at 125 g/ha [1, 6] of 20%, a pest or weed control at 500 g/ha [1, 7] of 70% and a pest or weed control at 62 g/ha [1, 6] of 0%. For the same compound, the pest or weed control at 250 g/ha [1, 7] was 30%, the pest or weed control at 62 g/ha ([1]; pre-emergence, Preemergence, scale 0 to 100, 0 no effect, 100 complete control, read-out: Plant response rating, Surinam Grass) was 0% and the pest or weed control at 125 g/ha [1, 8] was 0%. The pest or weed control at 250 g/ha [1, 8] was 0%, the pest or weed control at 500 g/ha [1, 8] was 0% and the pest or weed control at 62 g/ha [2, 9] was 95%. It also gave a pest or weed control at 125 g/ha [2, 9] of 95%, a pest or weed control at 250 g/ha [2, 10] of 100% and a pest or weed control at 500 g/ha [2, 10] of 100%. For the same compound, the pest or weed control at 62 g/ha ([2]; pre-emergence, Preemergence, scale 0 to 100, 0 no effect, 100 complete control, read-out: Plant response rating, Morningglory) was 50%, the pest or weed control at 125 g/ha [2, 11] was 80% and the pest or weed control at 250 g/ha [2, 11] was 90%. For the same compound, the pest or weed control at 500 g/ha [2, 11] was 100%, the pest or weed control at 62 g/ha (kochia (Kochia scoparia); [12]) was 100% and the pest or weed control at 125 g/ha (kochia (Kochia scoparia); [12]) was 100%. For the same compound, the pest or weed control at 250 g/ha (kochia (Kochia scoparia); [13]) was 100%, the pest or weed control at 500 g/ha (kochia (Kochia scoparia); [13]) was 100% and the pest or weed control at 62 g/ha (kochia (Kochia scoparia); pre-emergence, Preemergence, scale 0 to 100, 0 no effect, 100 complete control, read-out: Plant response rating, Kochia) was 80%. The pest or weed control at 125 g/ha (kochia (Kochia scoparia); [14]) was 95%, the pest or weed control at 250 g/ha (kochia (Kochia scoparia); [14]) was 100% and the pest or weed control at 500 g/ha (kochia (Kochia scoparia); [14]) was 100%. The pest or weed control at 62 g/ha ([3]; post-emergence, Postemergence, scale 0 to 100 (0 no effect, 100 complete control), read-out: Bermudagrass plant response rating) was 5%, the pest or weed control at 125 g/ha [3, 15] was 50% and the pest or weed control at 250 g/ha [3, 15] was 70%. It also gave a pest or weed control at 500 g/ha [3, 15] of 80%, a pest or weed control at 62 g/ha ([3]; pre-emergence, Preemergence, scale 0 to 100, 0 no effect, 100 complete control, read-out: Plant response rating, Bermudagrass) of 0% and a pest or weed control at 125 g/ha [3, 16] of 0%. It also gave a pest or weed control at 250 g/ha [3, 16] of 30%, a pest or weed control at 500 g/ha [3, 16] of 70% and a pest or weed control at 62 g/ha [4, 17] of 80%. It also gave a pest or weed control at 125 g/ha [4, 17] of 95%, a pest or weed control at 250 g/ha [4, 18] of 100% and a pest or weed control at 500 g/ha [4, 18] of 100%. The pest or weed control at 62 g/ha ([4]; pre-emergence, Preemergence, scale 0 to 100, 0 no effect, 100 complete control, read-out: Plant response rating, Cocklebur) was 10%, the pest or weed control at 125 g/ha [4, 19] was 90% and the pest or weed control at 250 g/ha [4, 19] was 100%. It also gave a pest or weed control at 500 g/ha [4, 19] of 100%, a pest or weed control at 62 g/ha ([5]; 62 g ai/ha, scale 0 to 100, 0 no effect, 100 complete control) of 60% and a pest or weed control at 125 g/ha ([5]; 125 g ai/ha, scale 0 to 100) of 90%. It also gave a pest or weed control at 250 g/ha ([5]; 250 g ai/ha, scale 0 to 100) of 100% and a pest or weed control at 500 g/ha ([5]; 500 g ai/ha, scale 0 to 100) of 100%.
